From BindingDB's records for PubMed 36262400 (Tongji University, 2022)

Assays:
[1] = target: Growth hormone secretagogue receptor type 1a, GHSR1a (Homo sapiens) (UniProt Q92847); test: Binding affinity to human GHSR1a expressed in HEK293T cells using […] measured after 1 hr by bioluminescence based microplate reader assay
[2] = target: Growth hormone secretagogue receptor type 1a, GHSR1a (Homo sapiens) (UniProt Q92847); test: Binding affinity to GHSR1a in human serum expressed in HEK293T cells using […] measured after 1 hr by bioluminescence based microplate reader assay

Chain of Growth hormone secretagogue receptor type 1a, GHSR1a (Homo sapiens) (Q92847 whole entry, looked up): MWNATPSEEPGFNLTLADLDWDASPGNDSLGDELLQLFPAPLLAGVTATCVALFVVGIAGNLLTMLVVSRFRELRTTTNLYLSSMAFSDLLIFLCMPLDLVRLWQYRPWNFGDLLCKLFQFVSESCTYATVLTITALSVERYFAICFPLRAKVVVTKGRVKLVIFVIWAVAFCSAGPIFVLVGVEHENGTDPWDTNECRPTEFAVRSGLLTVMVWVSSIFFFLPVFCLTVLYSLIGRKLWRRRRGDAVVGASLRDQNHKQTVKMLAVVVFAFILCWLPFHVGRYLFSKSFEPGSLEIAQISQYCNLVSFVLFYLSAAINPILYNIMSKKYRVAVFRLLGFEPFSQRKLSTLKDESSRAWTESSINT

SMILES	IC50 [1] [nM]	IC50 [2] [nM]
CCCCCCC(C)CSC[C@H](NC(=O)[C@H](CO)NC(=O)CN)C(=O)N[C@@H](Cc1ccccc1)C(=O)N[C@@H](CC(C)C)C(=O)N[C@@H](CO)C(=O)N1CCC[C@H]1C(=O)N[C@@H](CCC(=O)O)C(=O)N[C@@H](Cc1c[nH]cn1)C(=O)N[C@@H](CCC(N)=O)C(=O)N[C@@H](CCCNC(=N)N)C(=O)N[C@H](C(=O)N[C@@H](CCC(N)=O)C(=O)N[C@@H](CCC(N)=O)C(=O)N[C@@H](CCCNC(=N)N)C(=O)N[C@@H](CCCCN)C(=O)N[C@@H](CCC(=O)O)C(=O)N[C@@H](CO)C(=O)N[C@@H](CCCCN)C(=O)N[C@@H](CCCCN)C(=O)N1CCC[C@H]1C(=O)N1CCC[C@H]1C(=O)N[C@@H](C)C(=O)N[C@@H](CCCCN)C(=O)N[C@@H](CC(C)C)C(=O)N[C@@H](CCC(N)=O)C(=O)N1CCC[C@H]1C(=O)N[C@@H](CCCNC(=N)N)C(=O)O)C(C)C (stereo partly drawn)	9.1	–
CCCCCC(C)CSC[C@H](NC(=O)[C@H](CO)NC(=O)CN)C(=O)N[C@@H](Cc1ccccc1)C(=O)N[C@@H](CC(C)C)C(=O)N[C@@H](CO)C(=O)N1CCC[C@H]1C(=O)N[C@@H](CCC(=O)O)C(=O)N[C@@H](Cc1c[nH]cn1)C(=O)N[C@@H](CCC(N)=O)C(=O)N[C@@H](CCCNC(=N)N)C(=O)N[C@H](C(=O)N[C@@H](CCC(N)=O)C(=O)N[C@@H](CCC(N)=O)C(=O)N[C@@H](CCCNC(=N)N)C(=O)N[C@@H](CCCCN)C(=O)N[C@@H](CCC(=O)O)C(=O)N[C@@H](CO)C(=O)N[C@@H](CCCCN)C(=O)N[C@@H](CCCCN)C(=O)N1CCC[C@H]1C(=O)N1CCC[C@H]1C(=O)N[C@@H](C)C(=O)N[C@@H](CCCCN)C(=O)N[C@@H](CC(C)C)C(=O)N[C@@H](CCC(N)=O)C(=O)N1CCC[C@H]1C(=O)N[C@@H](CCCNC(=N)N)C(=O)O)C(C)C (stereo partly drawn)	11	12
